Measurements from paper PMC11037862 (ACS chemical neuroscience, 2023).

Target: S1PR1 (sphingosine-1-phosphate receptor 1) (Homo sapiens, UniProt P21453)
Test: saturation autoradiography with the tritiated ligand on human brain sections

Chain of S1PR1 (sphingosine-1-phosphate receptor 1) (P21453 whole entry): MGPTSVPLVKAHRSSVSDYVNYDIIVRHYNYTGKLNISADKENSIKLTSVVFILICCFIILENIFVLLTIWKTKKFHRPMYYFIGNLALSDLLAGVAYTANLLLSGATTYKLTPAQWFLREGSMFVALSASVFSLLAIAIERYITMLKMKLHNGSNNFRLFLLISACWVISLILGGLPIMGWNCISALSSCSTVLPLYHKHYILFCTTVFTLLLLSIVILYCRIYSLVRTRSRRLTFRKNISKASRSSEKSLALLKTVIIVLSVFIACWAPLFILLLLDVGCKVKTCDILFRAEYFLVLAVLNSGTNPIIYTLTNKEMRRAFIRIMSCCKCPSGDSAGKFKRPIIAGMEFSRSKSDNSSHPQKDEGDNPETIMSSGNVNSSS

- Kd: 2.7 ± 0.2 nM
Substance: [^3H]CS1P1
